pIC50: −log10 of the molar value.
How the values were obtained:
HDAC2 = HDAC2 (Homo sapiens, UniProt Q92769); assay type: biochemical; details: read-out: HDAC inhibitory activity IC50, HDAC2
HDAC1 = HDAC1 (Homo sapiens, UniProt Q13547); assay: homogeneous trypsin-coupled fluorigenic HDAC assay, HDAC1; details: isostere versus corresponding depsipeptide natural product (active thiol forms)
Sequence of HDAC1 (Q13547 whole entry): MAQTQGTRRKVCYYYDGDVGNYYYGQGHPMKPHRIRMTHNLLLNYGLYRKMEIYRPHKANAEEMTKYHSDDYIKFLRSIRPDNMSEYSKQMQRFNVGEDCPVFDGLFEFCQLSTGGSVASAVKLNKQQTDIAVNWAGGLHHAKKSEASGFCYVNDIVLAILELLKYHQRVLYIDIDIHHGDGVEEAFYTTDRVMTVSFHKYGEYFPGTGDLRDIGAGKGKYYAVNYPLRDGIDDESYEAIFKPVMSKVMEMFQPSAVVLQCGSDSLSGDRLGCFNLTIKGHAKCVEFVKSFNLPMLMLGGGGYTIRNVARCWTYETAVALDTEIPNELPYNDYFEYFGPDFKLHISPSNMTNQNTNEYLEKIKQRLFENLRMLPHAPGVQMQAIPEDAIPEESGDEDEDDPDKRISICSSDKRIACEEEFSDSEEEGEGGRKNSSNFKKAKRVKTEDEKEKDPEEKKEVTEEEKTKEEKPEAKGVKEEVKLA

Sequence of HDAC2 (Q92769 whole entry): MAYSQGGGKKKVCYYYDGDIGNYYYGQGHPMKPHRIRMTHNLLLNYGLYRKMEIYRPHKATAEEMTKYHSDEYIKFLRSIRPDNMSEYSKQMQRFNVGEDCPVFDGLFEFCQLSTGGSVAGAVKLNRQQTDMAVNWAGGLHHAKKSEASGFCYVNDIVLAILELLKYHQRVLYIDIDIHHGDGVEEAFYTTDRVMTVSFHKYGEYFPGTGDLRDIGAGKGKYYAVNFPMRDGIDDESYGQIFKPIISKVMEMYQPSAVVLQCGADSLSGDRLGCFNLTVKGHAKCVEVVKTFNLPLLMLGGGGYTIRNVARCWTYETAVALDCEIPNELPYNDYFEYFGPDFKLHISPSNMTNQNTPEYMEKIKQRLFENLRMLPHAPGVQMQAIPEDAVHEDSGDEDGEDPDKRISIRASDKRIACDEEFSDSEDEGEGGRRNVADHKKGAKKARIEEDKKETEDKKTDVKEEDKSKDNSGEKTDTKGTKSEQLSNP

SMILES | pIC50 (HDAC2) | fold less potent against HDAC1 than the parent natural product (HDAC1) [fold]
CCCCCCCC(=O)SCC/C=C/[C@@H]1CC(=O)NCc2nc(cs2)C2=N[C@@](C)(CS2)C(=O)N[C@@H](C(C)C)C(=O)N1 [Largazole Isostere (11)] | < 5.52 | –
CC(C)[C@@H]1NC(=O)[C@]2(C)CSC(=N2)c2csc(n2)CNC(=O)C[C@@H](/C=C/CCS)NC1=O [Largazole Isostere Thiol (31)] | – | 9

— paper PMC2880701 (Journal of the American Chemical Society, 2009)
